Test results taken from ChEMBL document CHEMBL1139433 (J Med Chem, 2004).
Square brackets hold non-standard residues; d marks the D form. Peptide text beside a SMILES is read from it. Phe(4-NH2) = Nc1ccc(C[C@H](N)C(=O)O)cc1

Target: T1, Angiotensin II receptor (AT-1) type-1 (Rattus norvegicus, UniProt P29089+P25095)
T1 sequence (P29089 whole entry): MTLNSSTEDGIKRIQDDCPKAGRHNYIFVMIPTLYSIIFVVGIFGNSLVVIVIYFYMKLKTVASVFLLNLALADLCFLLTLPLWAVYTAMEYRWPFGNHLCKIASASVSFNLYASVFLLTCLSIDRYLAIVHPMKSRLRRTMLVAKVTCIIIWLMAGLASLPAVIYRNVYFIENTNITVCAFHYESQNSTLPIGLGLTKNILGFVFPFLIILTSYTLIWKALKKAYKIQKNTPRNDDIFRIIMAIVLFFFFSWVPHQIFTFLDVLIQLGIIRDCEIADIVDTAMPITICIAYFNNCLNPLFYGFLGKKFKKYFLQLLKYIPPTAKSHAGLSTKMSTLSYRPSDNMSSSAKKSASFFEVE
T1 sequence (P25095 whole entry): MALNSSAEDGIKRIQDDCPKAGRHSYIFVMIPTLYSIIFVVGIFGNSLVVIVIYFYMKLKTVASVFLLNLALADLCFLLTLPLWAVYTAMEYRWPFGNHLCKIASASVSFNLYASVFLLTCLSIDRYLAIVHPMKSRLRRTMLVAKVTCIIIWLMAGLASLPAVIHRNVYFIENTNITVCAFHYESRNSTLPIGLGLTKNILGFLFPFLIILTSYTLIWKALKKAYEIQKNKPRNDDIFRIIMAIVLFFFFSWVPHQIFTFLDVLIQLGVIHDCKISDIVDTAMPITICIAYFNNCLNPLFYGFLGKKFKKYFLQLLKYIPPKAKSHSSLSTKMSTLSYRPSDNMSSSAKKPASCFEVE
Assay: Displacement of [125I]-Ang II from rat liver membrane angiotensin II type 1 (AT1) receptor

CC[C@H](C)[C@H](NC(=O)[C@H](Cc1ccc(O)cc1)NC(=O)[C@@H](NC(=O)[C@H](CCCN=C(N)N)NC(=O)[C@@H](N)CC(=O)O)C(C)C)C(=O)N[C@@H](Cc1ccc(N)cc1)C(=O)N1CCC[C@H]1C(=O)N[C@@H](Cc1ccccc1)C(=O)O (H-DRVYI[Phe(4-NH2)]PF-OH)
Ki: > 10 µM
